Test results from PMC5653818, “A Brain Penetrant Mutant IDH1 Inhibitor Provides In Vivo Survival Benefit” (Scientific Reports, 2017).

Target: IDH1 R132H (mutant isocitrate dehydrogenase 1) (Homo sapiens, UniProt O75874, R132H)
Experiment: coupled enzymatic assay (GAPDH/PGK/luciferase luminescence) with R132H IDH1 enzyme
Assay type: biochemical

Chain of IDH1 R132H (mutant isocitrate dehydrogenase 1) (O75874 2-414 R132H): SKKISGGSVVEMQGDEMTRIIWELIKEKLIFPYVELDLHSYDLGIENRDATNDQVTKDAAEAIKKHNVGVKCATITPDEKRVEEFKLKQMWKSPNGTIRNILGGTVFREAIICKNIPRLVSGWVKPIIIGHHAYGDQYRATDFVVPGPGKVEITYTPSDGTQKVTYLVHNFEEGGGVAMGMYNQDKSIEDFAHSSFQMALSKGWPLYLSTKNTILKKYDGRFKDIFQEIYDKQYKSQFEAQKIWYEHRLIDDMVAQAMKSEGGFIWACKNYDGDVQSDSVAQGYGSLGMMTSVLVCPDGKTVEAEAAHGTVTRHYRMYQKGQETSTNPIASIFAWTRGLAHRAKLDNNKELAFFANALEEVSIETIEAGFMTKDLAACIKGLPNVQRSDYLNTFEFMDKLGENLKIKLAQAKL

Structure (SMILES): O=C(C1CCc2ccccc2CC1)N1Cc2cccnc2Nc2ccc(N3CCOCC3)cc21 [MRK-A]
- IC50: 5 nM
